The structures appear in SMILES notation. Read-outs that look alike come from different tables or passages of the source.

The subject of one data set is Spodoptera frugiperda. Description: Spodoptera frugiperda spray test (maize leaf discs). The settings on record: 500 g/ha, after 7 days, caterpillars on maize leaf discs. In kind it is in vivo. The protocol:
Spodoptera frugiperda—Spray Test Solvent: 78.0 parts by weight of acetone • • 1.5 parts by weight of dimethylformamide Emulsifier: alkylaryl polyglycol ether […] To produce further test concentrations, the preparation is diluted with emulsifier-containing water. Leaf discs of maize (Zea mays) are sprayed with an active compound preparation of the desired concentration and, after drying, populated with caterpillars of the armyworm (Spodoptera frugiperda).

The test system of the next data set is Ctenocephalides felis. Description: Ctenocephalides felis oral test. In kind it is in vivo. The settings on record: 100 ppm in citrated cattle blood, after 2 days. The text has this: Ctenocephalides felis—Oral Test Solvent: dimethyl sulphoxide […] Dilution with citrated cattle blood gives the desired concentration. About 20 unfed adult cat fleas (Ctenocephalides felis) are placed into a chamber which is closed at the top and bottom with gauze. A metal cylinder whose bottom end is closed with parafilm is placed onto the chamber. The cylinder contains the blood/active compound preparation, which can be imbibed by the fleas through the parafilm membrane.

The next data set deals with Phaedon cochleariae. Description: Phaedon cochleariae spray test. It counts as in vivo. The conditions noted are these: 500 g/ha, after 7 days, larvae on Chinese cabbage leaf discs. The protocol: Phaedon cochleariae—Spray Test
(§1) Solvent: 78.0 parts by weight of acetone • • 1.5 parts by weight of dimethylformamide
(§2) Emulsifier: alkylaryl polyglycol ether
(§3) To produce a suitable preparation of active compound, 1 part by weight of active compound is dissolved using the stated parts by weight of solvent and made up with water containing an emulsifier concentration of 1000 ppm until the desired concentration is attained. To produce further test concentrations, the preparation is diluted with emulsifier-containing water.
After 7 days, the efficacy in % is determined. 100% means that all the beetle larvae have been killed; 0% means that no beetle larvae have been killed.

Another data set relates to Lucilia cuprina. Description: Lucilia cuprina test. In kind it is in vivo. The settings on record: 100 ppm, after 2 days, L1 larvae. The protocol: (§4) Solvent: dimethyl sulphoxide
(§5) To produce a suitable preparation of active compound, 10 mg of active compound are mixed with 0.5 ml of dimethyl sulphoxide, and the concentrate is diluted with water to the desired concentration.
About 20 L1 larvae of the Australian sheep blowfly (Lucilia cuprina) are transferred into a test vessel containing minced horsemeat and the active compound preparation of the desired concentration.
After 2 days, the kill in % is determined. 100% means that all the larvae have been killed; 0% means that no larvae have been killed.

Another data set deals with Boophilus microplus. Description: Boophilus microplus injection test. It counts as in vivo. The settings on record: 20 μg/animal, assessed after 7 days. The protocol:
Boophilus microplus—Injection Test
as §4
To produce a suitable preparation of active compound, 10 mg of active compound are mixed with 0.5 ml of solvent and the concentrate is diluted with solvent to the desired concentration.
1 μl of the active compound solution is injected into the abdomen of 5 engorged adult female cattle ticks (Boophilus microplus). The animals are transferred into dishes and kept in a climate-controlled room.
Efficacy is assessed after 7 days by laying of fertile eggs. Eggs which are not visibly fertile are stored in a climate-controlled cabinet until the larvae hatch after about 42 days. An efficacy of 100% means that none of the ticks has laid any fertile eggs; 0% means that all the eggs are fertile.

Another data set has as its system Musca domestica. The data set can be described thus: Musca domestica test. In kind it is in vivo. The settings on record: 100 ppm, after 2 days, adult houseflies. The protocol: as §4, §5
Vessels containing a sponge treated with sugar solution and the active compound preparation of the desired concentration are populated with 10 adult houseflies (Musca domestica).
After 2 days, the kill in % is determined. 100% means that all of the flies have been killed; 0% means that none of the flies have been killed.

The nature of data set [1]: log P by HPLC on reversed-phase column (EEC Directive 79/831 Annex V.A8). In kind it is physicochemical. The conditions noted are these: pH 7.8, 0.001 molar aqueous ammonium hydrogencarbonate/acetonitrile, 55° C., read-out: log P (neutral). The text has this:
Called log P (neutral) in the table.

The test system of another data set is Myzus persicae. The data set can be described thus: Myzus persicae spray test (Chinese cabbage leaf discs). In kind it is in vivo. The conditions noted are these: 500 g/ha, after 6 days. The protocol: Myzus persicae—Spray Test Solvent: 78 parts by weight of acetone • • 1.5 parts by weight of dimethylformamide Emulsifier: alkylaryl polyglycol ether […] To produce further test concentrations, the preparation is diluted with emulsifier-containing water. Discs of Chinese cabbage leaves (Brassica pekinensis) infested by all stages of the green peach aphid (Myzus persicae) are sprayed with an active compound preparation of the desired concentration.

For a further data set, the system named is Tetranychus urticae. The data set can be described thus: Tetranychus urticae spray test, OP-resistant. The settings on record: after 6 days, bean leaf discs. In kind it is in vivo. The protocol: Tetranychus urticae—Spray Test, OP-Resistant
as §1, §2, §3
Discs of bean leaves (Phaseolus vulgaris) infested with all stages of the greenhouse red spider mite (Tetranychus urticae) are sprayed with an active compound preparation of the desired concentration.
After 6 days, the efficacy in % is determined. 100% means that all the spider mites have been killed; 0% means that no spider mites have been killed.

The mark [2] stands for this setting: reversed-phase HPLC column (C18).

For `CCS(=O)(=O)c1ccc(-n2ccc(C#N)n2)nc1-c1nc2cc(C(F)(F)F)ncc2n1C` [Example 22], the efficacy in the data set with Spodoptera frugiperda and with Phaedon cochleariae was 100% each time. In addition, the entries for the “efficacy (kill)” value with Ctenocephalides felis, with Lucilia cuprina and in the data set with Musca domestica were 100%, 100% and 80%, respectively. The “efficacy (laying of fertile eggs)” value with Boophilus microplus came to 80%.
On to `CCS(=O)(=O)c1ccc(Cl)nc1-c1nc2cc(C(F)(F)F)ncc2n1C` [2-(6-Chloro-3-ethylsulphonyl-2-pyridyl)-3-methyl-6-(trifluoromethyl)imidazo[4,5-c]pyridine], for which the chromatographic logP in data set [1] (setting [2]) was found to be 2.54.
Turning to `CCS(=O)(=O)c1ccc(-n2ccc(CS(C)(=O)=O)n2)nc1-c1nc2cc(C(F)(F)F)ncc2n1C` [Example 40], the efficacy worked out at 100% in the data set on Phaedon cochleariae, 90% with Myzus persicae and 90% in the data set with Tetranychus urticae (500 g/ha).
`CCS(=O)(=O)c1ccc(-n2cc(C3CC3)cn2)nc1-c1nc2cc(C(F)(F)F)ncc2n1C` [Example 13]: the efficacy in the data set on Spodoptera frugiperda and in the data set with Phaedon cochleariae was 100% each time. Further, the “efficacy (kill)” value with Ctenocephalides felis worked out at 80%; in the data set on Lucilia cuprina, 100%; in the data set with Musca domestica, 100%.
On to `CCS(=O)(=O)c1ccc(-c2cccs2)nc1-c1nc2cc(C(F)(F)F)ncc2n1C` [Example 79], for which the efficacy in the data set with Tetranychus urticae (100 g/ha) was 90%.
`CCS(=O)(=O)c1ccc(-n2cc(Cl)cn2)nc1-c1nc2cc(C(F)(F)F)ncc2n1C` [Example 36]: the efficacy in the data set with Spodoptera frugiperda and in the data set on Phaedon cochleariae was 100% each time. Moreover, the “efficacy (kill)” value came out at 100% in the data set with Ctenocephalides felis, 100% in the data set on Lucilia cuprina and 85% with Musca domestica. Besides, in the data set with Boophilus microplus, the “efficacy (laying of fertile eggs)” value worked out at 90%.
Regarding `CCS(=O)(=O)c1ccc(-c2ccncc2)nc1-c1nc2cc(C(F)(F)F)ncc2n1C` [Example 78], the efficacy is 100% in the data set with Phaedon cochleariae and 90% in the data set with Tetranychus urticae (100 g/ha).
As for `CCS(=O)(=O)c1ccc(-c2ccco2)nc1-c1nc2cc(C(F)(F)F)ncc2n1C` [Example 80], the efficacy in the data set on Tetranychus urticae (500 g/ha) came to 90%.
Take `CCS(=O)(=O)c1ccc(-n2cnc(S(C)(=O)=O)n2)nc1-c1nc2cc(C(F)(F)F)ncc2n1C` [Example 5]: the efficacy is reported as 100% in the data set with Phaedon cochleariae, 90% in the data set with Myzus persicae and 90% in the data set on Tetranychus urticae (500 g/ha). Moreover, in the data set on Boophilus microplus, the “efficacy (laying of fertile eggs)” value came to 90%.
Regarding `CNc1cnc(C(F)(F)C(F)(F)F)cc1N` [II-1, N3-Methyl-6-(1,1,2,2,2-pentafluoroethyl)pyridine-3,4-diamine], the chromatographic logP in [1] (setting [2]) worked out at 1.68.
Turning to `CCS(=O)(=O)c1ccc(-n2cc(F)cn2)nc1-c1nc2cc(C(F)(F)C(F)(F)F)ncc2n1C` [Example 59], the efficacy in the data set with Spodoptera frugiperda and in the data set with Phaedon cochleariae was 100% each time. The “efficacy (kill)” value is 100% in the data set on Ctenocephalides felis, 100% in the data set with Lucilia cuprina and 95% with Musca domestica. For the same compound, the “efficacy (laying of fertile eggs)” value in the data set with Boophilus microplus was found to be 90%.
In the case of `CCS(=O)(=O)c1ccc(-n2cc(C#N)cn2)nc1-c1nc2cc(C(F)(F)F)ncc2n1C` [Example 19], the efficacy with Spodoptera frugiperda was 100%; in the data set on Phaedon cochleariae it was 100%; in the data set with Myzus persicae, 90%. The “efficacy (kill)” value in the data set on Ctenocephalides felis, with Lucilia cuprina and in the data set on Musca domestica was 100% throughout.
For `CCS(=O)(=O)c1ccc(-c2ccsc2)nc1-c1nc2cc(C(F)(F)F)ncc2n1C` [Example 20, 2-[3-Ethylsulphonyl-6-(3-thienyl)-2-pyridyl]-3-methyl-6-(trifluoromethyl)imidazo[4,5-c]pyridine], the chromatographic logP in [1] (setting [2]) was 3.13. Besides, in the data set with Lucilia cuprina, the “efficacy (kill)” value came to 100%.
For the compound `CCSc1ccc(Cl)nc1-c1nc2cc(C(F)(F)F)ncc2n1C` [2-(6-Chloro-3-ethylsulphanyl-2-pyridyl)-3-methyl-6-(trifluoromethyl)imidazo[4,5-c]pyridine], in [1] (setting [2]), the chromatographic logP amounted to 3.06.
Take `CCS(=O)(=O)c1ccc(-n2cc(C(F)(F)F)nn2)nc1-c1nc2cc(C(F)(F)F)ncc2n1C` [Example 24]: the efficacy in the data set with Spodoptera frugiperda was determined as 100%. The entries for the “efficacy (kill)” value with Lucilia cuprina and in the data set with Musca domestica were 100% and 80%, respectively. Also, the “efficacy (laying of fertile eggs)” value in the data set on Boophilus microplus is reported as 80%.
As for `Cn1c(-c2nc(Cl)ccc2Cl)nc2cc(C(F)(F)F)ncc21` [2-(3,6-Dichloro-2-pyridyl)-3-methyl-6-(trifluoromethyl)imidazo[4,5-c]pyridine], the chromatographic logP in data set [1] was found to be 2.81.
With `CCS(=O)(=O)c1ccc(-n2ccc(C3CC3)n2)nc1-c1nc2cc(C(F)(F)F)ncc2n1C` [Example 53], the efficacy in the data set with Spodoptera frugiperda was 100%; with Phaedon cochleariae, 100%; with Myzus persicae, 90%. Further, the “efficacy (kill)” value with Ctenocephalides felis and in the data set with Lucilia cuprina was 100% throughout.
Consider `CCS(=O)(=O)c1ccc(-n2cc(C(F)(F)F)cn2)nc1-c1nc2cc(C(F)(F)F)ncc2n1C` [Example 26, 2-[3-Ethylsulphonyl-6-[4-(trifluoromethyl)pyrazol-1-yl]-2-pyridyl]-3-methyl-6-(trifluoromethyl)-imidazo[4,5-c]pyridine], for which the efficacy with Spodoptera frugiperda and in the data set on Phaedon cochleariae was 100% in each case. For the same compound, in data set [1] (setting [2]), the chromatographic logP was determined as 3.34. Also, the “efficacy (kill)” value in the data set with Lucilia cuprina is 100%; in the data set with Musca domestica, 90%.
Regarding `CCS(=O)(=O)c1ccc(-n2ccc(C[S+](C)[O-])n2)nc1-c1nc2cc(C(F)(F)F)ncc2n1C` (stereo not shown) [Example 49], the values for the efficacy with Phaedon cochleariae, in the data set on Myzus persicae and in the data set on Tetranychus urticae (500 g/ha) were 100%, 90% and 90%, respectively.
Regarding `CCS(=O)(=O)c1ccc(-n2ncc(C(F)(F)F)n2)nc1-c1nc2cc(C(F)(F)F)ncc2n1C` [Example 30], the efficacy with Spodoptera frugiperda is listed as 100%; in the data set on Phaedon cochleariae it was 100%; in the data set on Myzus persicae, 90%. For the same compound, in the data set on Lucilia cuprina, the “efficacy (kill)” value is given as 100%. In addition, in the data set on Boophilus microplus, the “efficacy (laying of fertile eggs)” value turned out to be 95%.
Regarding `CCS(=O)(=O)c1ccc(-n2ccc(C(F)(F)F)n2)nc1-c1nc2cc(C(F)(F)F)ncc2n1C` [Example 25], the efficacy with Spodoptera frugiperda and in the data set on Phaedon cochleariae was 100% throughout. Further, the “efficacy (kill)” value with Ctenocephalides felis and in the data set on Lucilia cuprina was 100% throughout. In addition, the “efficacy (laying of fertile eggs)” value in the data set on Boophilus microplus worked out at 80%.
